Structures can show the parent of a compound that is named as a salt.
The compounds below were run on KK mice (4-5 months old) suffering from diabetes mellitus (assay: Hypoglycemic activity: blood sugar lowering in diabetic KK mice fed the test compound). Conditions: 4 per group, powdered feed containing 0.01% of test compound for 3 days, plasma glucose vs control group.
Type: in vivo
Source text: Blood was collected from the tail veins of KK mice (4-5 months old) suffering from diabetes mellitus, and it was subjected to an assay of the blood sugar level. The mice were divided in groups (4 mice per group) as to have equal blood sugar levels on average in each group. Powdered mouse feed (F-1, Funabashi Farm) containing 0.01% of a test compound was given the mice for 3 days. Those mice groups fed with the test compound were referred to as “drug treated group”. Further, those groups fed with powdered feed free of the test compound were referred to as “control group”. Blood was collected from the tail veins of the mice 3 days later and was subjected to a centrifuge, and the glucose concentration in the resultant plasma was assayed with a glucose analyzer (Glucoloader, A&T Company). The average blood sugar lowering rate was calculated from the following formula:
Blood sugar lowering rate (%)=(Average blood sugar level in control group−Average blood sugar level in drug treated group)×100/Blood sugar level in control group

SMILES | Blood sugar lowering rate (%)
COC(=O)[C@H](Cc1ccc(OCc2nc3ccc(OC)cc3n2C)cc1)Nc1ccccc1C(=O)c1ccccc1.Cl [Example 16, N-(2-Benzoylphenyl)-4-(6-methoxy-1-methyl-1H-benzimidazol-2-ylmethoxy)phenylalanine methyl ester hydrochloride] | 32.1
Cc1cc(Oc2ccc3nc(COc4ccc(C[C@H](Nc5ccccc5C(=O)c5ccccc5)C(=O)O)cc4)n(C)c3c2)cc(C)c1N [Example 20, 4-[6-(4Amino-3 ,5dimethylphenoxy)-1-methyl-1H-benzimidazol-2-ylmethoxy]-N-(2-benzoylphenyl)phenylalanine dihydrochloride] | 40.0
Cn1c(COc2ccc(CC(OCc3ccc(F)cc3)C(=O)O)cc2)nc2ccc(Sc3cc(C(C)(C)C)c(O)c(C(C)(C)C)c3)cc21 (centres unmarked) [Example 4, 3-[4-[6-(3,5-Di-t-butyl-4-hydroxyphenylthio)-1-methyl-1H-benzimidazol-2-ylmethoxy]phenyl]-2-(4-fluorobenzyloxy)propionic acid] | 40.8
CCOC(Cc1ccc(OCc2nc3ccc(OC)cc3n2C)cc1)C(=O)O.Cl (centres unmarked) [Example 9, 2-Ethoxy-3-[4-(1-methyl-6-methoxy-1H-benzimidazol-2-ylmethoxy)phenyl]propionic acid hydrochloride] | 48.4
Cn1c(COc2ccc(CC(OCc3ccc(F)cc3)C(=O)O)cc2)nc2ccc(Oc3ccc(C45CC6CC(CC(C6)C4)C5)cc3)cc21 (centres unmarked) [Example 2, 3-[4-[6-(4-Adamantan-1-ylphenoxy)-1-methyl-1H-benzimidazol-2-ylmethoxy]phenyl]-2-(4-fluorobenzyloxy)propionic acid] | 58.5

— patent US6596751B2, “α-substituted carboxylic acid derivatives” (Sankyo Company Limited, priority 1999, dated 2003)
